Results: PubChem BioAssay (NCI)
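1) Cells in 96-well plates. 2) Compound, 48 h, 5 concentrations. 3) Linear interpolation between surrounding doses. 4) Unreached endpoint = highest concentration. At the GI50, growth is halved. TGI is the concentration that stops growth completely.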

Tests used:
Test in all cases: NCI-60 cell line screen, 48 h
NCI-H522 lung = tested on: NCI-H522 lung
KM20L2 colon = tested on: KM20L2 colon
SNB-78 CNS = tested on: SNB-78 CNS
RXF 393 renal = tested on: RXF 393 renal
HCC-2998 colon = tested on: HCC-2998 colon
SNB-19 CNS = tested on: SNB-19 CNS
UACC-62 melanoma = tested on: UACC-62 melanoma
HL-60(TB) leukemia = tested on: HL-60(TB) leukemia
DU-145 prostate = tested on: DU-145 prostate
PC-3 prostate = tested on: PC-3 prostate
ACHN renal = tested on: ACHN renal

SMILES	TGI (NCI-H522 lung)	TGI (KM20L2 colon)	TGI (SNB-78 CNS)	TGI (RXF 393 renal)	TGI (HCC-2998 colon)	TGI (SNB-19 CNS)	TGI (UACC-62 melanoma)	TGI (HL-60(TB) leukemia)	TGI (DU-145 prostate)	TGI (PC-3 prostate)	TGI (ACHN renal)	GI50 (NCI-H522 lung)	GI50 (DU-145 prostate)	GI50 (PC-3 prostate)	GI50 (ACHN renal)	GI50 (RXF 393 renal)	GI50 (HCC-2998 colon)	GI50 (SNB-19 CNS)	GI50 (UACC-62 melanoma)	GI50 (HL-60(TB) leukemia)
COc1cc2c(cc1Oc1c(Oc3c(O)c(OC)cc4c3C(CC(C)C)N(C)CC4)c(OC)cc3c1C(CC(C)C)N(C)CC3)C(CC(C)C)N(C)CC2 (stereo not given)	3.58 µM	7.12 µM	4.71 µM	3.28 µM	5.17 µM	2.18 µM	4.02 µM	8.16 µM												
CC(=O)C(C(C)=O)[C@@H]1OC(C)(C)O[C@@H]1[C@H]1COC(C)(C)O1	81.2 µM			> 100 µM	> 100 µM	> 100 µM	> 100 µM	> 100 µM	> 100 µM	> 100 µM	> 100 µM									
Cc1ccc(N=Nc2c(O)ccc3cc(S(=O)(=O)O)ccc23)cc1	> 100 µM			> 100 µM	> 100 µM	> 100 µM	> 100 µM	> 100 µM	> 100 µM	> 100 µM	> 100 µM									
Cc1cc(OCCOCCC(F)(F)P(=O)(O)O)ccc1CCc1cnc2c(N)nc3cc(CCC(=O)O)ccc3c2c1	> 100 µM			> 100 µM	> 100 µM	> 100 µM	> 100 µM	> 100 µM	> 100 µM	> 100 µM	> 100 µM	> 100 µM	> 100 µM	> 100 µM	> 100 µM	> 100 µM	> 100 µM	> 100 µM	> 100 µM	> 100 µM
COC(=O)c1cn(CC(O)CCl)nn1 (stereo not given)	> 100 µM			> 100 µM	> 100 µM	> 100 µM			> 100 µM	> 100 µM	> 100 µM									
S=c1nc(N/N=C/c2cccs2)c2cn[nH]c2[nH]1	76.8 µM			> 100 µM	27.8 µM	> 100 µM	> 100 µM	> 100 µM	> 100 µM	37.5 µM	> 100 µM									
CN1Cc2cc(O)c(O)cc2C(O)C1 (stereo not given)	> 100 µM			> 100 µM	> 100 µM	> 100 µM	> 100 µM	> 100 µM	> 100 µM	> 100 µM	> 100 µM									
COC(=O)CNC(=O)CCC(C)[C@H]1CCC2C3C(C[C@H](OC(C)=O)[C@@]21C)[C@@]1(C)CCC2(C[C@H]1C[C@H]3OC(C)=O)OOC1(CC[C@]3(C)C4C[C@H](OC(C)=O)[C@@]5(C)C(CC[C@@H]5C(C)CCC(=O)NCC(=O)OC)C4[C@H](OC(C)=O)C[C@@H]3C1)OO2 (stereo not given in full)	3.19 µM				1.86 µM	> 50 µM		2.37 µM		8.69 µM	1.57 µM									
COC1=C(C)C(=O)C2=C(C1=O)C1C3CC4=C(C(=O)C(OC)=C(C)C4=O)C(CNC(=O)C(C)O)N3C(C#N)C(C2)N1C (stereo not given)	< 0.01 µM	3.1 µM	0.0863 µM	0.022 µM	< 0.0272 µM	1.92 µM	< 0.01 µM	< 0.01 µM	0.0566 µM	1.74 µM	0.359 µM									
C=CC(C)C1(CCCOCc2ccccc2)C(=S)N2CCC3(CC24CCCC14)OCCO3 (stereo not given)	64.4 µM	> 100 µM	> 100 µM	> 100 µM	> 100 µM	> 100 µM	> 100 µM	5.2 µM			> 100 µM									
